Experimental data as given in ChEMBL document CHEMBL1145653, “The alkaloids of Corydalis meifolia” (J Nat Prod, 1983).

Legend:
Ileum [1] = test: Spasmolytic activity against guinea pig ileum assessed as inhibition of spasmogen-induced contraction at 10 ug; format: functional, Cavia porcellus
Ileum [2] = test: Spasmolytic activity against guinea pig ileum assessed as inhibition of spasmogen-induced contraction at 50 ug; format: functional, Cavia porcellus

COc1cc2c(cc1OC)[C@H]1[C@@H](C)c3ccc4c(c3CN1CC2)OCO4 [CAVIDINE] was tested, and the “inhibition (INH)” value (Ileum [1]) was 84% and the “inhibition (INH)” value (Ileum [2]) was 100%.

COc1cc2c(cc1OC)[C@@H]([C@H]1OC(=O)c3c1ccc1c3OCO1)N(C)CC2 [CORLUMINE] was tested, and the “inhibition (INH)” value (Ileum [1]) was 0% and the “inhibition (INH)” value (Ileum [2]) was 50%.

In the case of COc1cc2c(cc1OC)-c1c(C)c3ccc4c(c3c[n+]1CC2)OCO4.[Cl-] [DEHYDROCAVIDINE], the “inhibition (INH)” value (Ileum [1]) is reported as 20% and the “inhibition (INH)” value (Ileum [2]) is reported as 40%.

In the case of COc1cc2c(cc1OC)[C@]1([C@H](O)c3ccc4c(c3[C@@H]1O)OCO4)N(C)CC2 [YEMHUSOMINE], the “inhibition (INH)” value (Ileum [1]) is reported as 17% and the “inhibition (INH)” value (Ileum [2]) is reported as 52%.
